Values of other authors in patent publication US20120282652A1, “PREPARATION OF PEPTIDE MIXTURES BY PROTEASE CATALYSIS DESIGNED TO PROVIDE USEFUL BIOLOGICAL AND PHYSICAL PROPERTIES” (priority 2011, published 2012).

Assays:
[1] = Cheng et al.
[2] = system: S. aureus, E. coli, and P. aeruginosa; settings: peptide synthesized by traditional chemical methods

Substance: [γ-Glu-Cys]2-Gly
- Cd(II) at which binding saturated (absorbance at 240 nm, Mehra): 0.5 equivalents
- Cd(II)/peptide ratio up to which absorption intensity is enhanced (absorption at 250 nm, Kobayashi and Yoshimura): ≤ 1.4

Substance: [γ-Glu-Cys]4-Gly [[(γ-EC)4]-Gly]
- order of binding efficiency of the metals [1]: Cd>Zn>Ni>Co

Substance: LKLLKKLLKKLKKLLKKL [amphipathic model peptide synthesized by traditional chemical methods]
- antimicrobial activity compared with diblock KKKKKKKKKLLLLLLLLL or alternating KLKLKLKLKLKLKLKLKL [2]: better antimicrobial activity
